{"source": "patent US10278971B2", "about": "“Fluorocyclopentenylcytosine methods of use” (Rexahn Pharmaceuticals, Inc., priority 2015, dated 2019)", "key": {"A549": {"test_system": "A549", "assay": "Cell cycle distribution and apoptosis by flow cytometry (PI, Annexin V)", "type": "cell-based, human", "protocol": "(§1) The effect of RX-3117 on cell cycle regulation and cell death in human non-small cell lung cancer (NSCLC) cell lines A549 (adenocarcinoma), SW1573 (alveolar carcinoma) and SW1573/G- (SW1573 cell line resistant to gemcitabine) and H460 (large cell carcinoma) was assessed. The A549 and H460 cell lines were obtained from American Type Culture Collection (Manassas, Va., USA). The SW1573 cell line, obtained from Dr. Johan van Rijn (see Keiser et al., Cancer Research, 49:2988-2993 (1989)), also served as the parental cell line for SW1573/G-. A549, SW1573, and SW1573/G- and H460 were kept in exponential growth in T25 flasks (Greiner Bio-One GmbH, Frickenhausen, Germany) and cultured in Dulbecco's minimal essential medium (DMEM) or RPMI 1640 (A549) supplemented with 10% heat-inactivated fetal bovine serum (FBS) 1% streptomycin and penicillin 20 mM HEPES and maintained in 37° C. water saturated atmospheres of 5% CO2. For the cell cycle distribution, 1.5×10^5 cells were seeded in a T25 flask (Greiner Bio-One GmbH) and cultured for 72 hours after which 1 μM of RX-3117 was added and incubated for 24 hours. The cells were then harvested. After the treatment, the medium was collected in a 15 ml tube (Greiner Bio-One GmbH). The cells were washed with ice cold PBS and trypsinized (Lonza) at 37° C. The collected medium was used to inactivate trypsin of the corresponding sample and again collected in the 15 ml tube. The cells were centrifuged with the standard centrifuge program, 5 minutes at 4° C. and […]. The medium was removed, pellet washed with 1 ml PBS/0.01% BSA and centrifuged. After removal of the supernatant, the cells were fixed with 1 ml 70% ethanol and incubated at −20° C. for at least 24 hours. Subsequently, the cells were centrifuged, washed with 1 ml PBS/0.1% BSA and transferred to a FALCON FACS tube (BD, Franklin Lakes, N.J., USA). The cells were centrifuged, and the supernatant was removed followed by the addition of 0.5 μg propidium iodide (PI) (Sigma, St. Louis, Mo., USA), 0.1% trisodium citrate (Riedel-de Haen, Sigma-Aldrich Laborchemikalien GmbH, St. Louis, Mo., USA), 0.1% Triton X-100™ (Merck) and 0.1 mg/ml RNase (Sigma) (PI solution) to the samples. Subsequently, for at least 15 minutes, the cells were incubated on ice with the PI solution to stain the DNA before starting the analysis. The cells stained with the PI solution were analyzed by FACSCalibur™ (BD Biosciences, Mount View, Calif., USA). Data was analyzed with CellQuest™ Pro software.\n(§2) Cell cycle distribution and apoptosis were analyzed by plating cells in flat bottom 6 well plates (Greiner Bio-One GmbH, Frickenhausen, Germany) at the density of 5,000 cells and allowed to attach for 24 h. Thereafter cytotoxic concentrations of 5×IC50 were added. The exposure time was 24 h and 48 h and for comparison the control group was included. At each time point total amount of adherent and floating cells were harvested in round-bottom FALCON tubes (BD, Franklin Lakes, N.J., USA). After centrifugation, cell pellets were resuspended in 1.0 ml propidium iodide (PI) solution (50 ug/ml PI, 0.1% sodium citrate 0.1% Triton X-100, 0.1 mg/ml ribonuclease A) or 10 ul Annexin V (cat#31490014, Immunotools) and left on ice for 30 minutes. Subsequently, samples were analyzed using FACSCalibur (BD Biosciences, Mount View, Calif., USA). For data analysis CELLQuest™ software was carried out, using gates on DNA histograms to estimate the amount of cells in sub-G1 phase (apoptotic cells)."}, "SW1573": {"test_system": "SW1573", "assay": "Cell cycle distribution and apoptosis by flow cytometry (PI, Annexin V)", "type": "cell-based, human", "protocol": "as §1, §2"}, "SW1573/G-": {"test_system": "SW1573/G-", "assay": "Cell cycle distribution by flow cytometry (PI)", "type": "cell-based, human", "protocol": "The effect of RX-3117 on cell cycle regulation and cell death in human non-small cell lung cancer (NSCLC) cell lines A549 (adenocarcinoma), SW1573 (alveolar carcinoma) and SW1573/G- (SW1573 cell line resistant to gemcitabine) and H460 (large cell carcinoma) was assessed. The A549 and H460 cell lines were obtained from American Type Culture Collection (Manassas, Va., USA). The SW1573 cell line, obtained from Dr. Johan van Rijn (see Keiser et al., Cancer Research, 49:2988-2993 (1989)), also served as the parental cell line for SW1573/G-. A549, SW1573, and SW1573/G- and H460 were kept in exponential growth in T25 flasks (Greiner Bio-One GmbH, Frickenhausen, Germany) and cultured in Dulbecco's minimal essential medium (DMEM) or RPMI 1640 (A549) supplemented with 10% heat-inactivated fetal bovine serum (FBS) 1% streptomycin and penicillin 20 mM HEPES and maintained in 37° C. water saturated atmospheres of 5% CO2. […] The cells stained with the PI solution were analyzed by FACSCalibur™ (BD Biosciences, Mount View, Calif., USA). Data was analyzed with CellQuest™ Pro software.\nCell cycle distribution and apoptosis were analyzed by plating cells in flat bottom 6 well plates (Greiner Bio-One GmbH, Frickenhausen, Germany) at the density of 5,000 cells and allowed to attach for 24 h. […] Subsequently, samples were analyzed using FACSCalibur (BD Biosciences, Mount View, Calif., USA). […]"}, "A549 spheroids": {"test_system": "A549 spheroids", "assay": "Spheroid assay, radiosensitizing effect", "type": "cell-based, human", "protocol": "(§3) The NSCLC cell lines A549 and SW1573 were plated in low attachment 24 well plates (Corning Incorporated, Corning, N.Y.) at a density of 100,000 cells/well and allowed to form spheroids. After three days, single spheroids were transferred to new 24 well low attachment plates (one spheroid/well). Immediately after transfer treatment was started, for A549 and SW1573 cells 1 μM RX-3117 was combined with fractionated 2 Gy irradiation (5 days single 2 Gy dose). Pictures were taken on day 0 (before irradiation) and after 3, 6, 9, and 15 days using a phase contrast microscope (LeicaDMI300B Universal Grab 6.3 software, Digital Cell Imaging Labs). The measurements were taken by ImageJ software (ImageJ 1.45s, Wayne Rasband, National Institutes of Health, Bethesda, Md.) for spheroid volume calculation (V=4/3π(D/2)^3) as described earlier by Galvani et al. (Galvani E, Giovannetti E, Saccani F, Cavazzoni A, Leon L G, Dekker H, Alfieri R, Carmi C, Mor M, Ardizzoni A, Petronini P G and Peters G J: Molecular mechanisms underlying the antitumor activity of 3-aminopropanamide irreversible inhibitors of the epidermal growth factor receptor in non-small cell lung cancer. Neoplasia 15: 61-72, 2013)."}, "SW1573 spheroids": {"test_system": "SW1573 spheroids", "assay": "Spheroid assay, radiosensitizing effect", "type": "cell-based, human", "conditions": "SW1573 spheres", "protocol": "as §3"}, "SW1573/G": {"test_system": "SW1573/G", "conditions": "as reported in Peters et al. 2013; cited from earlier work"}}}
{"smiles": "Nc1ccn([C@@H]2C(F)=C(CO)[C@@H](O)[C@H]2O)c(=O)n1", "note": "[RX-3117, 4-amino-1-((1S,4R,5S)-2-fluoro-4,5-dihydroxy-3-hydroxymethyl-cyclopent-2-enyl)-1H-pyrimidin-2-one]", "values": [{"measurement": "accumulation of cells in the G1 phase", "setting": "A549; A549, 1 μM, 24 hour exposure", "value": "induced accumulation"}, {"measurement": "increased accumulation of cells in the G1 phase", "setting": "A549; A549, 1 μM, 24 hour exposure", "value": "20-40%"}, {"measurement": "apoptosis, Annexin V stained cells", "setting": "A549; A549, 5 μM, 24, 48, 72 and 96 hour exposure", "value": "induced apoptosis"}, {"measurement": "apoptosis, PI stained cells in the sub-G1 phase", "setting": "A549; A549, 5×IC50, 24 and 48 hour exposure", "value": "induced apoptosis"}, {"measurement": "accumulation of cells in the S-phase", "setting": "A549; A549, 5×IC50, 24 and 48 hours", "value": "induced the accumulation"}, {"measurement": "cell kill", "setting": "A549; A549, 24 hour exposure", "value": "No cell kill"}, {"measurement": "accumulation in S phase", "setting": "A549; A549, 48 hour exposure", "value": 45, "unit": "%"}, {"measurement": "cell kill", "setting": "A549; A549, 48 hour exposure", "value": 8, "unit": "%"}, {"measurement": "accumulation of cells in the G1 phase", "setting": "SW1573; SW1573, 1 μM, 24 hour exposure", "value": "induced accumulation"}, {"measurement": "increased accumulation of cells in the G1 phase", "setting": "SW1573; SW1573, 1 μM, 24 hour exposure", "value": "20-40%"}, {"measurement": "apoptosis, Annexin V stained cells", "setting": "SW1573; SW1573, 10 μM, 24, 48, 72 and 96 hour exposure", "value": "induced apoptosis"}, {"measurement": "apoptosis, PI stained cells in the sub-G1 phase", "setting": "SW1573; SW1573, 5×IC50, 24 and 48 hour exposure", "value": "induced apoptosis"}, {"measurement": "accumulation of cells in the S-phase", "setting": "SW1573; SW1573, 5×IC50, 24 and 48 hours", "value": "induced the accumulation"}, {"measurement": "cell kill", "setting": "SW1573; SW1573, 24 hour exposure", "value": "No cell kill"}, {"measurement": "cell kill", "setting": "SW1573; SW1573, 48 hour exposure", "value": 15, "unit": "%"}, {"measurement": "accumulation of cells in the G1 phase", "setting": "SW1573/G-; 1 μM, 24 hour exposure", "value": "induced accumulation"}, {"measurement": "accumulation of cells in the S-phase", "setting": "SW1573/G-; 5×IC50, 24 and 48 hours", "value": "induced the accumulation"}, {"measurement": "spheroid volume growth, combination with irradiation", "setting": "A549 spheroids; A549, 1 μM plus 5 days irradiation with 2 Gy", "value": "enhanced the effect"}, {"measurement": "spheroid volume growth, RX-3117 alone", "setting": "A549 spheroids; A549, 1 μM, 15 days", "value": "only a small effect"}, {"measurement": "spheroid volume, combination with radiotherapy", "setting": "SW1573 spheroids; 1 μM plus 2 Gy 5 days", "value": "the effect was enhanced with the combination"}, {"measurement": "spheroid volume, RX-3117 alone", "setting": "SW1573 spheroids; 1 μM, 15 days", "value": "highly affected"}, {"measurement": "IC50", "setting": "SW1573/G", "value": 7.3, "unit": "µM"}]}
